In patent US10975068B2, “6-aminopyridin-3-yl thiazoles as modulators of RORγT” (Janssen Pharmaceutica NV, priority 2016, dated 2021):
Like-named read-outs stand apart in the source and are kept apart here.

Key:
[1] = molecular target: human RORγt ligand binding domain (RORγt LBD) (Homo sapiens (Human), UniProt P51449); test: RORγt ThermoFluor® assay (thermal shift binding); details: read-out: ThermoFluor® Assay, Kd
Procedure, shortened: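 His-tagged human RORγt LBD (0.065 mg/mL) with 60 μM 1,8-ANS in 100 mM Hepes pH 7.0, 10 mM NaCl, 2.5 mM GSH, 0.002% Tween-20 was heated at 1 °C/min.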

full-length human RORγt = full-length human RORγt (Homo sapiens (Human), UniProt P51449); test: RORγt (full-length human) reporter assay, Conditions B or C; type: cell-based; details: for inhibition at 3 µM: at 3 μM compound concentration; for RORγt (FL) Reporter Assay B or C, % inhibition (value marked ***): marked ***: footnote not given; for RORγt (FL) Reporter Assay B or C, % inhibition (value marked *): marked *: footnote not given
full-length human RORγt, sequence (P51449 other isoform, or with tags, fused parts or gaps): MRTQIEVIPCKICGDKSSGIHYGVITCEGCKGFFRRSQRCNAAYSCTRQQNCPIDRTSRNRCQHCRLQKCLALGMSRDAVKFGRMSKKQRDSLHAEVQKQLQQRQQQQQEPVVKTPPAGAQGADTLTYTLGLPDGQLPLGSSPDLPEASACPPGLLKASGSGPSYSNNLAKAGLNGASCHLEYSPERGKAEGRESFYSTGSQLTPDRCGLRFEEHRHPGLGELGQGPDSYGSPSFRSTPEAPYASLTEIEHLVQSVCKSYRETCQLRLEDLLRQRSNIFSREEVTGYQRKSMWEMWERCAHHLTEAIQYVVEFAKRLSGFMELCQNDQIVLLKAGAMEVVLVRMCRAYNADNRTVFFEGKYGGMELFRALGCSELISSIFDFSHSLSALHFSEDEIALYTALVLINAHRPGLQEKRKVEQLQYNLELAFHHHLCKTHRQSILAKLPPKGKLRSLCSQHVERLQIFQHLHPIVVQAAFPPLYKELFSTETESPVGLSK
Procedure, shortened: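 HEK293T cells transiently co-transfected with GAL4-DBD–full-length human RORγt (nt 142-1635, NM_001001523.1) plus GAL4-firefly and CMV-Renilla luciferase reporters; compounds added 4-6 h post-transfection for 16-20 h in 1.3% FBS, 0.1% DMSO. Firefly signal normalized to DMSO and saturating reference compound, then to Renilla; IC50 from concentration plots.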

[2] = read-out: RORγt (FL) Reporter Assay B or C, % inhibition
[3] = read-out: RORγt (FL) Reporter Assay B or C, IC50
[4] = Conditions B or C, read-out: RORγt (FL) Reporter Assay B or C, IC50

human RORγt ligand binding domain (RORγt LBD), sequence (P51449 other isoform, or with tags, fused parts or gaps): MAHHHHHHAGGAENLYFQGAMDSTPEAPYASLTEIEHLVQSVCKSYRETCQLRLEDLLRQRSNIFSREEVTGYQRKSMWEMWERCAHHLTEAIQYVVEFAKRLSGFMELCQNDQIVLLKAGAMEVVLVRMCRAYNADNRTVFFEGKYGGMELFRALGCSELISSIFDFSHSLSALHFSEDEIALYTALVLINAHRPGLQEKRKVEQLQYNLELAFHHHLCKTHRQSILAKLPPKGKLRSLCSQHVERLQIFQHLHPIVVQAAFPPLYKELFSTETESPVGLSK

Row | SMILES | Kd [1] [nM] | inhibition at 3 µM (full-length human RORγt; [2]) [%] | IC50 (full-length human RORγt; [3]) [µM] | IC50 (full-length human RORγt; [4]) [µM] | RORγt (FL) Reporter Assay B or C, % inhibition (value marked *) (full-length human RORγt; Conditions B or C) | also measured
1 | C[C@H]1CC(F)(F)CN1C(=O)c1nc(C(=O)NCC(C)(C)O)sc1-c1cnc(NC(C2CC2)C2CC2)cc1C(F)(F)F [Example 138, (S)-5-(6-((Dicyclopropylmethyl)amino)-4-(trifluoromethyl)pyridin-3-yl)-4-(4,4-difluoro-2-methylpyrrolidine-1-carbonyl)-N-(2-hydroxy-2-methylpropyl)thiazole-2-carboxamide] | 0.62 |  |  | 0.012 |  | RORγt (FL) Reporter Assay B or C, % inhibition (value marked ***) (full-length human RORγt; Conditions B or C): 100*** %
2 | CC[C@H](Nc1cc(C(F)F)c(-c2sc(C(=O)N[C@@H]3CCC[C@H]3O)nc2C(=O)N2C3CCC2CC3)cn1)C(F)(F)F [Example 225, 4-((1s,4s)-7-Azabicyclo[2.2.1]heptane-7-carbonyl)-5-(4-(difluoromethyl)-6-(((1S)-1-(trifluoromethyl)propyl)amino)-3-pyridyl)-N-((1R,2R)-2-hydroxycyclopentyl)thiazole-2-carboxamide] | 0.95 |  |  | 0.0068 | 110* % | 
3 | C[C@H](Nc1cc(C(F)F)c(-c2sc(C(=O)N[C@H]3COC[C@H]3O)nc2C(=O)N2CCC[C@@H]2C)cn1)C(F)(F)F (single isomer, unassigned) [Example 160, 5-(4-(Difluoromethyl)-6-(((S)-1,1,1-trifluoropropan-2-yl)amino)pyridin-3-yl)-N-((3S*,4S*)-4-hydroxytetrahydrofuran-3-yl)-4-((S)-2-methylpyrrolidine-1-carbonyl)thiazole-2-carboxamide] | 8.7 |  |  | 0.41 | 101* % | 
4 | CC[C@H](Nc1cc(C(F)(F)F)c(-c2sc(C(=O)NCC(C)(C)O)nc2C(=O)N2CC(F)(F)C[C@@H]2C)cn1)C(F)(F)F [Example 102, 4-((S)-4,4-Difluoro-2-methylpyrrolidine-1-carbonyl)-N-(2-hydroxy-2-methylpropyl)-5-(6-(((S)-1,1,1-trifluorobutan-2-yl)amino)-4-(trifluoromethyl)pyridin-3-yl)thiazole-2-carboxamide] | 0.99 |  |  | 0.017 | 116* % | 
5 | C[C@H](Nc1cc(C(F)(F)F)c(-c2sc(C(=O)NCC(C)(C)O)nc2C(=O)N2CC(F)(F)C[C@@H]2C)cn1)C(F)(F)F [Example 110, 4-((S)-4,4-Difluoro-2-methylpyrrolidine-1-carbonyl)-N-(2-hydroxy-2-methylpropyl)-5-(4-(trifluoromethyl)-6-(((S)-1,1,1-trifluoropropan-2-yl)amino)pyridin-3-yl)thiazole-2-carboxamide] | 2.2 |  |  | 0.026 | 112* % | 
6 | CC[C@H](Nc1cc(C(F)F)c(-c2sc(C(=O)N[C@@H]3CC[C@@H](O)C3)nc2C(=O)N2C3CCC2CC3)cn1)C(F)(F)F [Example 152] | 0.88 |  |  | 0.011 |  | inhibition at 6 µM (full-length human RORγt; read-out: RORγt (FL) Reporter Assay B or C, % inhibition @ 6 μM, Conditions B or C, @ 6 μM): 102%
7 | CC[C@H](Nc1cc(C(F)F)c(-c2sc(C(=O)N[C@H]3CC[C@@H]3O)nc2C(=O)N2C3CCC2CC3)cn1)C(F)(F)F (relative stereo) [Example 406, 4-((1s,4s)-7-Azabicyclo[2.2.1]heptane-7-carbonyl)-5-(4-(difluoromethyl)-6-(((S)-1,1,1-trifluorobutan-2-yl)amino)pyridin-3-yl)-N-((1S*,2S*)-2-hydroxycyclobutyl)thiazole-2-carboxamide] | 2.7 |  | 0.081 |  |  | inhibition at 0.3 µM (full-length human RORγt; at 0.3 μM compound concentration, read-out: RORγt (FL) Reporter Assay B or C, % inhibition): 92%
8 | CC[C@H](Nc1cc(C(F)F)c(-c2sc(C(=O)N[C@H](C)CO)nc2C(=O)N2C3CCC2CC3)cn1)C(F)(F)F [Example 227, 4-((1s,4s)-7-Azabicyclo[2.2.1]heptane-7-carbonyl)-5-(4-(difluoromethyl)-6-(((1S)-1-(trifluoromethyl)propyl)amino)-3-pyridyl)-N-((1R)-2-hydroxy-1-methyl-ethyl)thiazole-2-carboxamide] | 4.6 |  |  |  | 95* % | IC50 (full-length human RORγt; RORγt (FL) Reporter Assay B or C, IC50 (μM), Conditions B or C): 0.014 µM

The next lines start with results.

Row | Kd [1] [nM] | inhibition at 3 µM (full-length human RORγt; [2]) [%] | IC50 (full-length human RORγt; [3]) [µM] | IC50 (full-length human RORγt; [4]) [µM] | RORγt (FL) Reporter Assay B or C, % inhibition (value marked *) (full-length human RORγt; Conditions B or C) | SMILES | also measured
9 | 4.5 | 108 | 0.036 |  |  | C[C@H]1CCCN1C(=O)c1nc(C(=O)N[C@@H]2CC[C@H]2O)sc1-c1cnc(NC(C)(C)C)cc1C(F)F (relative stereo) [Example 403, 5-(6-(tert-Butylamino)-4-(difluoromethyl)pyridin-3-yl)-N-(1R*,2R*)-2-hydroxycyclobutyl)-4-((S)-2-methylpyrrolidine-1-carbonyl)thiazole-2-carboxamide] | 
10 | 2.3 | 105 | 0.021 |  |  | C[C@H]1CCCN1C(=O)c1nc(C(=O)NC2CCS(=O)(=O)CC2)sc1-c1cnc(NC(C)(C)C)cc1C(F)F [Example 435, 5-[6-(tert-Butylamino)-4-(difluoromethyl)-3-pyridyl]-N-(1,1-dioxothian-4-yl)-4-[(2S)-2-methylpyrrolidine-1-carbonyl]thiazole-2-carboxamide] | 
11 | 2.2 |  |  | 0.018 | 105* % | C[C@H]1CCCN1C(=O)c1nc(C(=O)NCC(C)(C)O)sc1-c1cnc(NC(C2CC2)C2CC2)cc1C(F)F [Example 179, (S)-5-(6-((Dicyclopropylmethyl)amino)-4-(difluoromethyl)pyridine-3-yl)-N-(2-hydroxy-2-methylpropyl)-4-(2-methylpyrrolidine-1-carbonyl)thiazole-2-carboxamide] | 
12 | 0.5 | 108 | 0.0071 |  |  | C[C@H]1CCCN1C(=O)c1nc(C(=O)NCC(C)(C)O)sc1-c1cnc(NC(C)(C)CC(F)(F)F)cc1C(F)F [Example 296] | 
13 | 2.5 |  |  | 0.053 | 102* % | C[C@H](Nc1cc(C(F)F)c(-c2sc(C(=O)N[C@H](C)C(C)(C)O)nc2C(=O)N2CC(F)(F)C[C@@H]2C)cn1)C(F)(F)F [Example 198] | 
14 | 0.51 | 102 | 0.0052 |  |  | C[C@H]1CC(F)(F)CN1C(=O)c1nc(C(=O)NCC(C)(C)O)sc1-c1cnc(NCC2(C(F)(F)F)CCC2)cc1C(F)F [Example 273, 4-[(2S)-4,4-Difluoro-2-methyl-pyrrolidine-1-carbonyl]-5-[4-(difluoromethyl)-6-[[1-(trifluoromethyl)cyclobutyl]methylamino]-3-pyridyl]-N-(2-hydroxy-2-methyl-propyl)thiazole-2-carboxamide] | 
15 | 47 | 107 | 0.3 |  |  | CC[C@H](Nc1cc(C(F)F)c(-c2sc(C(=O)NC3CN(C(C)=O)C3)nc2C(=O)N2CCC[C@@H]2C)cn1)C(F)(F)F [Example 382, N-(1-Acetylazetidin-3-yl)-5-[4-(difluoromethyl)-6-[[(1S)-1-(trifluoromethyl)propyl]amino]-3-pyridyl]-4-[(2S)-2-methylpyrrolidine-1-carbonyl]thiazole-2-carboxamide] | 
16 | 1.3 |  |  | 0.015 |  | C[C@@H](Nc1cc(C(F)(F)F)c(-c2sc(C(=O)NCC(C)(C)O)nc2C(=O)N2CCC[C@@H]2C)cn1)C1CCC1 (relative stereo) [Example 176, 5-(6-(((R*)-1-Cyclobutylethyl)amino)-4-(trifluoromethyl)pyridine-3-yl)-N-(2-hydroxy-2-methylpropyl)-4-((S)-2-methylpyrrolidine-1-carbonyl)thiazole-2-carboxamide] | RORγt (FL) Reporter Assay B or C, % inhibition (value marked ***) (full-length human RORγt; Conditions B or C): 115*** %
